Consider 16 molecules from patent US12187723B2 (BRISTOL-MYERS SQUIBB COMPANY, priority 2019, dated 2025).

One experiment concerns the target T1, human TLR7 (Homo sapiens, UniProt Q9NYK1).
T1 construct: host or cells: HEK-Blue cells
T1 sequence (Q9NYK1 27-1049): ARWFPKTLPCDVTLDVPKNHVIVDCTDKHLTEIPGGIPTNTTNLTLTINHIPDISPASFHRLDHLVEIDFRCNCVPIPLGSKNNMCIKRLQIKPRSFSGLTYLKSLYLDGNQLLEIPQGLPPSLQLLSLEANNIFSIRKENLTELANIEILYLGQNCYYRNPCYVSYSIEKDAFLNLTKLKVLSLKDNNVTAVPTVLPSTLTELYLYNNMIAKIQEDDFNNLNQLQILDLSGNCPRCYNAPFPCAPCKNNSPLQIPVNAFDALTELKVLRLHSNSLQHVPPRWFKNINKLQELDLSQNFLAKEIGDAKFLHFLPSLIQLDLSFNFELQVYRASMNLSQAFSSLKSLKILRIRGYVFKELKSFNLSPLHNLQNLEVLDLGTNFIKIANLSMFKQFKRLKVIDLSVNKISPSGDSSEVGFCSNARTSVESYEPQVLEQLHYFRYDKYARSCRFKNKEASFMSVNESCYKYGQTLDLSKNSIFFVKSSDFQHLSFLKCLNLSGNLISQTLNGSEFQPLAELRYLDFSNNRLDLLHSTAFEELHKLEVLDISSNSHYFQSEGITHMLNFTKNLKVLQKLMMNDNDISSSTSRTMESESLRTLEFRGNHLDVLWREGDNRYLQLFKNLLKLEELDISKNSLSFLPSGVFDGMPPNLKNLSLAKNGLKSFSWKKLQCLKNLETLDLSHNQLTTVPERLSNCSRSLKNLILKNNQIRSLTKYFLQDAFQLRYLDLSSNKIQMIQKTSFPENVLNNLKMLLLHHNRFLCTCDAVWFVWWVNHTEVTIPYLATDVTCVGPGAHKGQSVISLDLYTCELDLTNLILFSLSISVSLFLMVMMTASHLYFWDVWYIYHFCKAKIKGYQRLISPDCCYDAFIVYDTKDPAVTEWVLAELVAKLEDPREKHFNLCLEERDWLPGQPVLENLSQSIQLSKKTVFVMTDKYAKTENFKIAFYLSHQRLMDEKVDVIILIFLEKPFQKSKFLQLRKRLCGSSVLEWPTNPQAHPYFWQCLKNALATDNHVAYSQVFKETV
The experiment in a line: TLR7 inhibition reporter assay (HEK-Blue SEAP). Format: cell-based. The note with it: HEK-Blue cells overexpressing human TLR7, gardiquimod 7.5 μM, 22 hour incubation. The procedure, abridged:
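22 h, 37° C, 5% CO2 incubation; compounds 0.05 nM-50 μM final; TLR7 cells 15000/well, TLR8 20,000/well. Readout: SEAP via HEK-Blue Detection medium. % inhibition = signal reduction versus agonist + DMSO wells, referenced to known inhibitor.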
(In a reporter assay the amount or activity of a reporter protein is the signal.)

Another experiment has as its target T2, human TLR9 (Homo sapiens, UniProt Q9NR96).
T2 construct: host or cells: HEK-Blue cells
T2 sequence (Q9NR96 26-1032): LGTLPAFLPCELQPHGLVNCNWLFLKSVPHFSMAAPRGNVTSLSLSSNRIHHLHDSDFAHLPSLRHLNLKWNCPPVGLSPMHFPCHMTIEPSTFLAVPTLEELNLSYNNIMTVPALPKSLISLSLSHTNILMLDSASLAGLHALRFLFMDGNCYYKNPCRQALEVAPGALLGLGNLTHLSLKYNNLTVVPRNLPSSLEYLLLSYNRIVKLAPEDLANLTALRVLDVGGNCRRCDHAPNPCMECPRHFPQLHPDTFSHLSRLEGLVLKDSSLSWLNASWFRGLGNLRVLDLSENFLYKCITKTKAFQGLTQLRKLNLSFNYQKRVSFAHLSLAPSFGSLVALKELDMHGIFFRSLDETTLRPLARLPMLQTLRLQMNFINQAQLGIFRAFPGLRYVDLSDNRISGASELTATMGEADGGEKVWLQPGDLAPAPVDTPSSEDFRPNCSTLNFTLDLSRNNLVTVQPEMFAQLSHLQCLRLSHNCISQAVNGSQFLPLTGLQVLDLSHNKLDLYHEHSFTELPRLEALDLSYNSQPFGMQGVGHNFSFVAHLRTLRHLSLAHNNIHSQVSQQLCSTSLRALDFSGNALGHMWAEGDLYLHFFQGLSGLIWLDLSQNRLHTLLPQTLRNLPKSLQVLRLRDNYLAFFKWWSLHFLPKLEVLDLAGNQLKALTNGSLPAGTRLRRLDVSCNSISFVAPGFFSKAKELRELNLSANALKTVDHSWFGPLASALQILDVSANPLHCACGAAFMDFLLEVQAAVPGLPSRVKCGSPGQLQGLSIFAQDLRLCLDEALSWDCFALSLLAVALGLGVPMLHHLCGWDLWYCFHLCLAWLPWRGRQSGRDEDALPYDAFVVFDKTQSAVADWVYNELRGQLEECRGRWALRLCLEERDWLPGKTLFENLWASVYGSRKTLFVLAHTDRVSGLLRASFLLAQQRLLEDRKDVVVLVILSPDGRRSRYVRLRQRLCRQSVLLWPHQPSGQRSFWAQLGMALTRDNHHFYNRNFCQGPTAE
Kind of experiment: TLR9 inhibition reporter assay (HEK-Blue SEAP). Format: cell-based. Conditions: HEK-Blue cells overexpressing human TLR9, ODN2006 5 nM, 22 hour incubation. The procedure, abridged: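 Compound treatment: 30 min, RT, 0.05 nM–50 μM final. Agonist: TLR7 gardiquimod 7.5 μM; TLR8 R848 15.9 μM; TLR9 ODN2006 5 nM. Incubation 22 h, 37 °C, 5% CO2. Readout SEAP, HEK-Blue Detection.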

As a reminder, the IC50 is the point on the concentration scale where inhibition reaches its midpoint.

As to `COc1cc(-c2cc3[nH]c(=O)n(C4CCCN(C(=O)CN(C)C)C4)c3cc2C)cn2ncnc12` (centres unmarked) [Example 105, 1-(1-(dimethylglycyl)piperidin-3-yl)-5-(8-methoxy-[1,2,4]triazolo[1,5-a]pyridin-6-yl)-6-methyl-1,3-dihydro-2H-benzo[d]imidazol-2-one], the values for the IC50 against human TLR7 and against human TLR9 were 399 nM and 7940 nM, respectively.

Turning to `COc1cc(-c2cc3[nH]c(=O)n([C@@H]4CCCN(CC(C)C)C4)c3cc2C(C)C)cn2ncnc12` [Example 141, (R)-1-(1-isobutylpiperidin-3-yl)-6-isopropyl-5-(8-methoxy-[1,2,4]triazolo[1,5-a]pyridin-6-yl)-1,3-dihydro-2H-benzo[d]imidazol-2-one], the IC50 against human TLR7 turned out to be 0.12 nM; against human TLR9, 3880 nM.

On to `Cc1cc2c(cc1-c1cc(C)c3ncnn3c1)[nH]c(=O)n2[C@@H]1CCCN(C(=O)CN(C)C)C1` [Example 104, (R)-1-(1-(dimethylglycyl)piperidin-3-yl)-6-methyl-5-(8-methyl-[1,2,4]triazolo[1,5-a]pyridin-6-yl)-1,3-dihydro-2H-benzo[d]imidazol-2-one], for which the IC50 against human TLR7 is 71 nM; against human TLR9 it was 1450 nM.

Take `COc1cc(-c2cc3[nH]c(=O)n(C4CCN(C(=O)CN(C)C)CC4)c3cc2C)cn2ncnc12` [Example 100, 1-(1-(2-(dimethylamino)acetyl)piperidin-4-yl)-5-(8-methoxy-[1,2,4]triazolo[1,5-a]pyridin-6-yl)-6-methyl-1H-benzo[d]imidazol-2(3H)-one]: the results for the IC50 against human TLR7 and against human TLR9 were 548 nM and 1660 nM, respectively.

Turning to `CCCN1CCC(n2c(=O)[nH]c3cc(-c4cc(OC)c5ncnn5c4)c(C(C)C)cc32)CC1` [Example 155, 6-isopropyl-5-(8-methoxy-[1,2,4]triazolo[1,5-a]pyridin-6-yl)-1-(1-propylpiperidin-4-yl)-1,3-dihydro-2H-benzo[d]imidazol-2-one], the IC50 at human TLR7 was found to be 6.33 nM; against human TLR9, 11900 nM.

As for `COc1cc(-c2cc3[nH]c(=O)n([C@H]4CCCN(C5CCC5)C4)c3cc2C(C)C)cn2ncnc12` [Example 122, (S)-1-(1-cyclobutylpiperidin-3-yl)-6-isopropyl-5-(8-methoxy-[1,2,4]triazolo[1,5-a]pyridin-6-yl)-1,3-dihydro-2H-benzo[d]imidazol-2-one], the half-maximal inhibitory concentration (IC50) came to 15.1 nM at human TLR7 and 12700 nM on human TLR9.

As for `Cc1cc(-c2ccc3c(c2)[nH]c(=O)n3C2CCN(C)CC2)cn2ncnc12` [Example 4, 5-(8-methyl-[1,2,4]triazolo[1,5-a]pyridin-6-yl)-1-(1-methylpiperidin-4-yl)-1,3-dihydro-2H-benzo[d]imidazol-2-one], the IC50 at human TLR7 stood at 863 nM; at human TLR9, 964 nM.

Take `COc1cc(-c2cc3[nH]c(=O)n([C@@H]4CCCN(C(C)C)C4)c3cc2C(F)(F)F)cn2ncnc12` [Example 111, (R)-1-(1-isopropylpiperidin-3-yl)-5-(8-methoxy-[1,2,4]triazolo[1,5-a]pyridin-6-yl)-6-(trifluoromethyl)-1,3-dihydro-2H-benzo[d]imidazol-2-one]: the IC50 against human TLR7 came out at 23.6 nM; at human TLR9 it was 9940 nM.

For the molecule `COc1cc(-c2cc3[nH]c(=O)n([C@H]4CCCN(CC5CC5)C4)c3cc2C(C)C)cn2ncnc12` [Example 127, (S)-1-(1-(cyclopropylmethyl)piperidin-3-yl)-6-isopropyl-5-(8-methoxy-[1,2,4]triazolo[1,5-a]pyridin-6-yl)-1,3-dihydro-2H-benzo[d]imidazol-2-one], the IC50 is 14.3 nM at human TLR7 and 15600 nM on human TLR9.

For `COc1cc(-c2cc3[nH]c(=O)n(C4CCN(CC5CCOCC5)CC4)c3cc2C(C)C)cn2ncnc12` [Example 159, 6-isopropyl-5-(8-methoxy-[1,2,4]triazolo[1,5-a]pyridin-6-yl)-1-(1-((tetrahydro-2H-pyran-4-yl)methyl)piperidin-4-yl)-1,3-dihydro-2H-benzo[d]imidazol-2-one], the IC50 against human TLR7 was determined as 7.23 nM; on human TLR9 it was 7250 nM.

As to `CCN1CCC(n2c(=O)[nH]c3cc(-c4cc(C)c5ncnn5c4)c(C)cc32)CC1` [Example 6, 1-(1-ethylpiperidin-4-yl)-6-methyl-5-(8-methyl-[1,2,4]triazolo[1,5-a]pyridin-6-yl)-1,3-dihydro-2H-benzo[d]imidazol-2-one], the values for the IC50 on human TLR7 and against human TLR9 were 38.7 nM and 871 nM, respectively.

As to `COc1cc(-c2cc3[nH]c(=O)n(C4CCN(CC5CC5)CC4)c3cc2C(C)C)cn2ncnc12` [Example 161, 1-(1-(cyclopropylmethyl)piperidin-4-yl)-6-isopropyl-5-(8-methoxy-[1,2,4]triazolo[1,5-a]pyridin-6-yl)-1,3-dihydro-2H-benzo[d]imidazol-2-one], the IC50 was determined as 7.28 nM at human TLR7 and 11300 nM against human TLR9.

As to `COc1cc(-c2cc3[nH]c(=O)n([C@H]4CCCN(CC5CCOCC5)C4)c3cc2C(C)C)cn2ncnc12` [Example 125, (S)-6-isopropyl-5-(8-methoxy-[1,2,4]triazolo[1,5-a]pyridin-6-yl)-1-(1-((tetrahydro-2H-pyran-4-yl)methyl)piperidin-3-yl)-1,3-dihydro-2H-benzo[d]imidazol-2-one], the IC50 on human TLR7 is 34.1 nM; at human TLR9 it was 7720 nM.

Turning to `CCc1cc2c(cc1-c1cc(OC)c3ncnn3c1)[nH]c(=O)n2[C@H]1CC[C@@H](NC(C)C)CC1` [Example 167, 6-ethyl-1-((1s,4s)-4-(isopropylamino)cyclohexyl)-5-(8-methoxy-[1,2,4]triazolo[1,5-a]pyridin-6-yl)-1,3-dihydro-2H-benzo[d]imidazol-2-one], the IC50 is 3.08 nM against human TLR7 and 16600 nM against human TLR9.

Consider `COc1cc(-c2cc3[nH]c(=O)n(C4CCN(C(C)C)CC4)c3cc2C(C)C)cn2ncnc12` [Example 163, 6-isopropyl-1-(1-isopropylpiperidin-4-yl)-5-(8-methoxy-[1,2,4]triazolo[1,5-a]pyridin-6-yl)-1,3-dihydro-2H-benzo[d]imidazol-2-one], for which the IC50 at human TLR7 amounted to 7.49 nM; against human TLR9, 15300 nM.

Consider `Cc1c(-c2cc3[nH]c(=O)n([C@@H]4CCCN(C(C)C)C4)c3cc2C(C)C)cn2ncnc2c1C` [Example 145, (R)-5-(7,8-dimethyl-[1,2,4]triazolo[1,5-a]pyridin-6-yl)-6-isopropyl-1-(1-isopropylpiperidin-3-yl)-1,3-dihydro-2H-benzo[d]imidazol-2-one], for which the figures for the IC50 against human TLR7 and on human TLR9 were 3.7 nM and 14300 nM, respectively.
